The nature of test [1]: cells. It counts as functional, cell-based.
A short description of test [2]: Fluorescence-based cell-based high throughput dose response assay for inhibitors of the interaction of nucleotide-binding oligomerization domain containing 2 (NOD2) and the receptor-interacting serine-threonine kinase 2 (RIPK2). It counts as functional. As to conditions: Homo sapiens.
Test [3] is described as follows: miR-122 activators in hepatoma reporter cells, dose response, cell-based, Huh7 psiCHECK-miR122, Renilla luciferase, cherry-picked (AID 651956).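 Note: huh7 hepatoma cells stably carrying a psiCHECK-2 miR-122 sensor plasmid; renilla luciferase signal reporting endogenous miR-122 activity after 48 h compound exposure.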 It counts as functional.
Test [4] has as its target T1, RNA-binding protein pos-1 (Caenorhabditis elegans, UniProt G5EF15).
T1 sequence (G5EF15 whole entry): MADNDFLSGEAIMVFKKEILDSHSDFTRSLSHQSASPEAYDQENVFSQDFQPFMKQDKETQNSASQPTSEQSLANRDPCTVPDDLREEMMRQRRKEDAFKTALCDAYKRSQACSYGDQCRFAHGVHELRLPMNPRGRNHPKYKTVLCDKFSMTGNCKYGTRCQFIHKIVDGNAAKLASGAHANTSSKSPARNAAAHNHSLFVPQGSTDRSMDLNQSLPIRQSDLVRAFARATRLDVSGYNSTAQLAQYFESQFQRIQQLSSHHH
The test can be described thus: inhibitors of POS-1/mex-3 RNA binding, dose response, biochemical, fluorescence polarization (AID 1964).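 Note: purified POS-1 fused to maltose binding protein made in E. coli; potency of compounds blocking POS-1 binding to fluorescent RNA.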 For orientation: Fluorescence polarisation rises when a labelled molecule tumbles more slowly, as on binding a larger partner.

The target in test [5] is Apoptotic protease-activating factor 1 (Homo sapiens, UniProt O14727). It counts as functional.
Test [6] in a line: inhibitors of firefly luciferase expression or activity, dose response, H4 neuroglioma cells, luminescence (AID 1990). It counts as functional, cell-based.
A short description of test [7]: inhibitors of SNCA 5'UTR-driven reporter translation, confirmation, H4 neuroglioma cells, luminescence (AID 1988). It counts as functional, cell-based.
Test [8] deals with T2, Leucine aminopeptidase (Plasmodium falciparum 3D7, UniProt Q8IL11).
T2 sequence (Q8IL11 whole entry): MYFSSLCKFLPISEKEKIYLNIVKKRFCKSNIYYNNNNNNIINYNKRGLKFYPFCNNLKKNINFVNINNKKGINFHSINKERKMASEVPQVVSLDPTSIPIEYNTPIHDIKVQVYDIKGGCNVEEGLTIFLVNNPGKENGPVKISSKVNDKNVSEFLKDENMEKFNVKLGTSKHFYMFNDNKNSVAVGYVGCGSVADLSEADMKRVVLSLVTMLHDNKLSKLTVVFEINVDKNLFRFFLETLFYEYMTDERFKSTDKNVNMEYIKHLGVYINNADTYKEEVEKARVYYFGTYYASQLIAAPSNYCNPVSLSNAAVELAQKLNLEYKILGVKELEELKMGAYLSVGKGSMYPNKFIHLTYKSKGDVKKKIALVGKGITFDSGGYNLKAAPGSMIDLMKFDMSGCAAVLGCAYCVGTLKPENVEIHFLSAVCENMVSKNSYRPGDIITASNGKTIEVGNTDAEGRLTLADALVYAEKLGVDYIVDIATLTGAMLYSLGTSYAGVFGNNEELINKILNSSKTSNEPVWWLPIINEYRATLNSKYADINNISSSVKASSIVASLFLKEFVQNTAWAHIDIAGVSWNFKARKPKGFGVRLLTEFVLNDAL
In words: P. falciparum M17LAP inhibitors, primary screen, biochemical, fluorogenic H-Leu-NHMec substrate, 1536-well (AID 1619). It counts as functional.

For test [9], the target named is Alkaline phosphatase, placental type (Homo sapiens, UniProt P05187). In words: PLAP enzyme inhibitors, confirmation, biochemical, luminescence (AID 1512). Format: functional.
Test [10] has as its target T3, Alkaline phosphatase, tissue-nonspecific isozyme (Homo sapiens, UniProt P05186).
T3 sequence (P05186 whole entry): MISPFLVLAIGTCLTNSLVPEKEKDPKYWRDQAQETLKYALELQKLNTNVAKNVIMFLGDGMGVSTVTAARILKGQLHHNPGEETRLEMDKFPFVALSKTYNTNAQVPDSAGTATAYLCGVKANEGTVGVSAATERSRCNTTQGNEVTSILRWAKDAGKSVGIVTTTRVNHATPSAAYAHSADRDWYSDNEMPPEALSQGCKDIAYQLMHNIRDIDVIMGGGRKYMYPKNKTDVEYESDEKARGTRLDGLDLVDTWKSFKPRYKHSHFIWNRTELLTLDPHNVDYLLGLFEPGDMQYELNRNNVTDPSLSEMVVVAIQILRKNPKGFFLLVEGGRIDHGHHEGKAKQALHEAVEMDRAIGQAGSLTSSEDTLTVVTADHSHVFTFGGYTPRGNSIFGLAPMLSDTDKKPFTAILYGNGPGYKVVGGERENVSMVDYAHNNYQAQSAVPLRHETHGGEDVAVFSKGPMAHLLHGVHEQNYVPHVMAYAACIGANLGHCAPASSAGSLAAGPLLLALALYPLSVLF
In words: human TNAP enzyme inhibitors, SAR follow-up, biochemical, luminescent, dose response (AID 1056).

Each structure is given as a SMILES string. The source made the active and inactive calls. A value given as a limit tells only on which side of the number the result lay.

Apoptotic protease-activating factor 1, sequence (O14727 whole entry): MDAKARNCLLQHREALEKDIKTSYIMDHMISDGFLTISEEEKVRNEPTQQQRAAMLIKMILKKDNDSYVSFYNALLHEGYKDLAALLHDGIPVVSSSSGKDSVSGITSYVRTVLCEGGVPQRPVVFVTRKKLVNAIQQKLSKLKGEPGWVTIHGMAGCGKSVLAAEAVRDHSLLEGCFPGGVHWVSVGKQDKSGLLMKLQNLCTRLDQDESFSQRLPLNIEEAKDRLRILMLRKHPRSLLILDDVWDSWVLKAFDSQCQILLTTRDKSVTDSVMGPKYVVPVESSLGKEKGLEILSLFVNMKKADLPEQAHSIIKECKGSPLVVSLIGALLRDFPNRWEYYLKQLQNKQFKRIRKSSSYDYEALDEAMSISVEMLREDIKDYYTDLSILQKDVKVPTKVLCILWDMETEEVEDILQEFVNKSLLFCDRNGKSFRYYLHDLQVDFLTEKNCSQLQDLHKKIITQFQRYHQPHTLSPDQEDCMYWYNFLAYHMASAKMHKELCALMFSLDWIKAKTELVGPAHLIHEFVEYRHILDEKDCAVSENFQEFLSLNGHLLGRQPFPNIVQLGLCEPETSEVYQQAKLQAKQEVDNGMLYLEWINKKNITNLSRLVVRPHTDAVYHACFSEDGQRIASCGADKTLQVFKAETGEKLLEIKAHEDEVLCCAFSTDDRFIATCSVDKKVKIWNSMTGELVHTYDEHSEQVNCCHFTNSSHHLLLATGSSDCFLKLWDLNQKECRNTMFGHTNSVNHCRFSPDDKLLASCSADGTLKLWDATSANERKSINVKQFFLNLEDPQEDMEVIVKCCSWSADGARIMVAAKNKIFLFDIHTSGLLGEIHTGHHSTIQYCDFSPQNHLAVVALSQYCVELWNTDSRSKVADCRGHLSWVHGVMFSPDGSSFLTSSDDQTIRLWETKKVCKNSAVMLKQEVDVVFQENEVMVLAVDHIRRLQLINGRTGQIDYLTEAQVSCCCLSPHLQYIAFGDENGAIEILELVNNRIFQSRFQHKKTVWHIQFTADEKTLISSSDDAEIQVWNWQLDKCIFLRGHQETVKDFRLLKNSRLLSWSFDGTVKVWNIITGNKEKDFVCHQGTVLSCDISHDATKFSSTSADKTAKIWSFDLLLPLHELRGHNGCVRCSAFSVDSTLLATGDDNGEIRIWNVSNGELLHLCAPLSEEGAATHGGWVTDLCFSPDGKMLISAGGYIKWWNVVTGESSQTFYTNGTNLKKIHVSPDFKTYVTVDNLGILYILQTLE
Alkaline phosphatase, placental type, sequence (P05187 whole entry): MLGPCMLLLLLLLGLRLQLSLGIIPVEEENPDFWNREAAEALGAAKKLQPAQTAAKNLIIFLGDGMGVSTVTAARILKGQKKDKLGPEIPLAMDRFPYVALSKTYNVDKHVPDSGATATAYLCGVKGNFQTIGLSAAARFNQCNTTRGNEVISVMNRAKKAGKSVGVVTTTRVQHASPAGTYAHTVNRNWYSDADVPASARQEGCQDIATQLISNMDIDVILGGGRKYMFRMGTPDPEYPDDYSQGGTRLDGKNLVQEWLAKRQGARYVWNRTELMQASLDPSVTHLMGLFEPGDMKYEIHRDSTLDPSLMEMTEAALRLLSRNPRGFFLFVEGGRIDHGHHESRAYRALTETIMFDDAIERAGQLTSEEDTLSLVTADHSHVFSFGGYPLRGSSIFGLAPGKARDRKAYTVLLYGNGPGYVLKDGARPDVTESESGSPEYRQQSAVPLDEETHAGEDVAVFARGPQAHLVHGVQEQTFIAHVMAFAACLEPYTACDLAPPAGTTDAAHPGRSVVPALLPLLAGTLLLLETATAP

A word on the EC50: it is the concentration giving half of the maximal effect. For the compound `Cn1c(O)c(/C=N/NC(=O)c2cc3ccccc3cc2O)c2ccccc21`, the EC50 in test [1] was 4.07 µM (active).

As a reminder, the IC50 is the point on the concentration scale where inhibition reaches its midpoint. Usually AC50 stands for the midpoint of the concentration-response curve, whichever way the signal moves. `COc1ccc(CC2=CC(=O)c3ccccc3C2=O)cc1`: the IC50 in test [2] was 4.12 µM (active). In addition, the AC50 in test [3] is 20.7 µM (active).

Take `c1coc(-c2nnc(-c3ccco3)nn2)c1`: the EC50 in test [4] is 7.92 µM (inconclusive). The IC50 in [5] was 15.8 µM (active).

In the case of `O=C(Nc1cccc(NC(=O)c2ccccc2Cl)c1)c1ccc([N+](=O)[O-])o1`, the EC50 in test [6] is 8.33 µM (active); in [7], 8.12 µM (active).

As for `Oc1cc(-c2cccc3ccccc23)[nH]n1`, the IC50 in test [8] was 2.9 µM (active); in [9], > 10 µM (inactive); in [10], 3.87 µM (active).
